The source of these data is patent publication US20260209219A1, “SUBSTITUTED TETRAHYDROPYRROLO-PYRIDINONE COMPOUNDS AND THEIR USE IN TREATING MEDICAL CONDITIONS” (Karuna Therapeutics, Inc., priority 2022, published 2026).

One assay deals with T1, rM4 receptors (Rattus norvegicus, UniProt P08485).
T1 construct: expressed in transfected cells; host or cells: CHO cells
T1 sequence (P08485 1-478): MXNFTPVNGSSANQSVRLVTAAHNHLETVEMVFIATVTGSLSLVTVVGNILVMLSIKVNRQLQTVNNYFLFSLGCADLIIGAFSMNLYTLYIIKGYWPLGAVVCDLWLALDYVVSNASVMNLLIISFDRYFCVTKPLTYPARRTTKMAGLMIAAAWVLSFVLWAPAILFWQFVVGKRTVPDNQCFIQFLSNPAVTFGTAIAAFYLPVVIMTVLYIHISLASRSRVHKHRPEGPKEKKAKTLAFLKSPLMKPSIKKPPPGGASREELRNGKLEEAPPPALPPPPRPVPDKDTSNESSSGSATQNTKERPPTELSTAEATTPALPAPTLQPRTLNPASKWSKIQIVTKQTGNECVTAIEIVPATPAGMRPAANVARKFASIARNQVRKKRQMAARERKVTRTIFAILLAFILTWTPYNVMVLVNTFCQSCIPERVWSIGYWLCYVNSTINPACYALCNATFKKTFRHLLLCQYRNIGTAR
Description: Rat M4 PAM pERK assay. The class given is cell-based. The note with it: CHO cells expressing rM4; with EC20 of acetylcholine (10 nM final). The method, then:
(§1) Chinese hamster ovary (CHO) cells expressing either hM4 or rM4 receptors were frozen in assay ready vials (5×10^6 cells/vial) after bulking-up in culture. The day before an assay, vial(s) were thawed and cells seeded in 384 well white proxiplates at 1000/well for hM4 cells and at 2000/well for rM4 cells, in 10 μL of growth media (Hams/F12 with glutamax and 10% FCS) and incubated overnight at 37° C./5% CO2.
(§2) On the following morning, the growth media was removed by ‘flicking out’ over a bin, patting the inverted plate onto tissue, and then replacing with 10 μL of wash media (Hams/F12 with glutamax and 8 mM HEPES, NB: serum free). Then, the wash media was removed in the same way and replaced with 8 μL/well of the serum free media. Plates were then re-incubated for a further 4 hours at 37° C./5% CO2.
(§3) Compounds for testing were solubilized to 10 mM in DMSO and compound addition plates, consisting of ten-point concentration response curves (CRC) in duplicate points (10 μM top concentration, ½ log dilution series), were prepared by acoustic dispensing and the compound management group.
(§4) After the 4-hour incubation in serum free media, a 4 μL aliquot of the 3× compound solution containing an EC20 of acetylcholine (10 nM final concentration) was added to the cell plate using a 384 well plate to plate transfer. Then, the plate lid was replaced, and the cells incubated for 5 mins at 37° C./5% CO2. Following this final incubation, all cellular processes were stopped by the addition of 4 μL/well of lysis and blocking buffer and plates were incubated for 30 minutes at RT on an orbital shaker (gentle setting). Then, a final addition of 4 μL/well of antibody detection mix, containing both the Europium-Cryptate (donor) and d2 (acceptor) tagged detection components, was added followed by a further 2-hour incubation at RT, and then the plate was read using a TR-FRET (time resolved fluorescence resonance energy transfer) based protocol.

A further assay deals with T2, hM4 receptors (Homo sapiens, UniProt P08173).
T2 construct: expressed in transfected cells; host or cells: CHO cells
T2 sequence (P08173 1-479): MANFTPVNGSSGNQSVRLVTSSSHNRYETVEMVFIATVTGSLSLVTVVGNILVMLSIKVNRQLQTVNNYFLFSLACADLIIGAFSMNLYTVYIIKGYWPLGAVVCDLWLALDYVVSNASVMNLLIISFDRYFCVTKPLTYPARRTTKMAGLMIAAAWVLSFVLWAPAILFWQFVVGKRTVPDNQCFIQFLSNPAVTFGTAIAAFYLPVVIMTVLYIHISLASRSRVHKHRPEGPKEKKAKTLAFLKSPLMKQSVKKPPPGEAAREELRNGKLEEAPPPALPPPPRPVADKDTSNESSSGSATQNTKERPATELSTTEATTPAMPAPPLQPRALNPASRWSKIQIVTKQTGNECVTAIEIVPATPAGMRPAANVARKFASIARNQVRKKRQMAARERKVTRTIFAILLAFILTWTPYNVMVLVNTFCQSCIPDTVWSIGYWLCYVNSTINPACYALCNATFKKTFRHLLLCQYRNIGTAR
Description: Human M4 PAM pERK assay. The class given is cell-based. The note with it: CHO cells expressing hM4; with EC20 of acetylcholine (10 nM final). The protocol: as §1, §2, §3, §4

The next assay deals with T3, human M4 receptor (Homo sapiens, UniProt P08173).
T3 construct: expressed in transfected cells; host or cells: CHO-K1 cells (membrane preparation)
T3 sequence (P08173 1-479): T2 sequence (P08173 1-479)
Nature of the assay: M4 GTPγS PAM assay. The class given is biochemical. The following applies: membranes of CHO-K1 cells stably expressing human M4; EC20 acetylcholine 40 nM. The method, then:
The M4 GTPγS PAM method was used. Membranes were prepared for GTPgS binding assays from CHO-K1 cells stably expressing human M4 receptor. Briefly, cells were grown in 5-layer cell culture flasks. Cells were washed with 50 mL of PBS and then dissociated with 0.05% trypsin. Dissociated cells were then collected by centrifugation at 650×g for 8 minutes at 4° C. Pellets were washed again in PBS by centrifugation and resuspended in 30 mL of 20 mM HEPES, 10 mM EDTA, pH 7.4. After sitting on ice for 30 min, membranes were collected by centrifugation at 50000×g for 15′ at 4° C., resuspended in 30 mL of 20 mM HEPES, 0.1 mM EDTA, pH 7.4 and collected again by centrifugation. Pellets were then washed twice by centrifugation in 30 mL of 20 mM HEPES, pH 7.4, and stored at −80° C. until the day of the assay. On the day of the assay, pellets were thawed on ice and resuspended in 1 mL of 20 mM HEPES, pH 7.4, 10 mM MgCl2, 100 mM NaCl using dounce homogenization. Membrane protein concentration is determined by BCA protein assay (Promega, Madison, WI) according to Promega guidelines.
On the day of the assay, serial dilutions of test PAM compounds were brought up in assay buffer (20 mM HEPES, 10 mM MgCl2, 100 mM NaCl) at 4× final assay concentration. […] of membrane homogenates (containing […] of membrane protein) were prepared in assay buffer supplemented with GDP at 4× final assay concentration (final assay concentration of GDP is 5 μM for M2 and 0.1 μM for M4) and dispensed into 96 well polypropylene, U-bottom Greiner plates. […] of vehicle or test PAM compound at 4× of final assay concentration diluted in the assay buffer were added to membrane and plates are incubated for 10-15 minutes at room temperature with gentle shaking. Then, […] of EC20 acetylcholine in assay buffer at 4× final assay concentration was added to assay plates (EC20 final assay concentrations was 40 nM for human M4).
Plates were then incubated, with shaking, for an additional 10-15 minutes. 25 mL of 0.4 nM ^35S-GTP (Perkin Elmer, Waltham, MA) in assay buffer was added to assay mixtures. The binding reaction is left on the shaker for 1 hour at room temperature. Membranes in assay reactions were then transferred to GF/C filter plates (Unifilter, Perkin Elmer) and washed three times using a FilterMate Harvester (Perkin Elmer) with cold assay buffer containing no GDP. Filter plates were then dried at 40° C. overnight followed by the addition of […] of Beta Plate Scintillation liquid. Plates are top and bottom sealed before being read on TopCount scintillation counter (Perkin Elmer, Waltham, MA).

A value given as a limit tells only on which side of the number the result lay.

In general, EC50 refers to the concentration that produces a half-maximal response. Read a high EC50 as lower potency in that assay. With `Cc1c2c(n(C)c(=O)c1F)CN(C(=O)CC1CC1c1ccc(C(F)(F)F)cc1)C2` (single isomer, unassigned) [Compound I-25, 3-Fluoro-1,4-dimethyl-6-([trans-2-(2-(4-(trifluoromethyl)phenyl)cyclopropyl)]acetyl)-1,5,6,7-tetrahydro-2/I-pyrrolo[3,4-b]pyridin-2-one], the EC50 on rM4 receptors is over 2 µM; on hM4 receptors, 0.5 to 2 µM; on human M4 receptor, 0.1 to 0.5 µM.
Consider `Cc1c2c(n(C)c(=O)c1F)CN(C(=O)CC1CC1c1cc(F)cc(F)c1)C2` (single isomer, unassigned) [Compound I-27], for which the 50% effective concentration (EC50) on rM4 receptors, at hM4 receptors and at human M4 receptor was under 0.1 µM throughout.
For `COc1c2c(n(C)c(=O)c1C)CN(C(=O)CC1CC1c1ccc(C(F)(F)F)cc1)C2` (single isomer, unassigned) [Compound I-29, 4-Methoxy-1,3-dimethyl-6-([trans-2-(2-(4-(trifluoromethyl)phenyl)cyclopropyl)]acetyl)-1,5,6,7-tetrahydro-2H-pyrrolo[3,4-b]pyridin-2-one], the half-maximal effective concentration (EC50) at rM4 receptors was 0.1 to 0.5 µM; on hM4 receptors it was 0.1 to 0.5 µM; on human M4 receptor, under 0.1 µM.
Take `Cc1c2c(n(C)c(=O)c1Cl)CN(C(=O)CC1CC1c1ccc(C(F)(F)F)cc1)C2` (single isomer, unassigned) [Compound I-32]: the EC50 on rM4 receptors lay within 0.5 to 2 µM; at hM4 receptors it was 0.5 to 2 µM; at human M4 receptor, 0.1 to 0.5 µM.
With `Cc1c2c(n(C)c(=O)c1Cl)CN(C(=O)CC1CC1c1ccc(C(F)(F)F)cc1)C2` (single isomer, unassigned) [Compound I-33], the EC50 at rM4 receptors, on hM4 receptors and on human M4 receptor was under 0.1 µM each time.
Consider `Cc1c2c(n(C)c(=O)c1Cl)CN(C(=O)CC1CC1c1cc(F)cc(F)c1)C2` (single isomer, unassigned) [Compound I-35], for which the 50% effective concentration (EC50) was over 2 µM on rM4 receptors, 0.5 to 2 µM at hM4 receptors and over 2 µM on human M4 receptor.
Consider `Cc1c2c(n(C)c(=O)c1Cl)CN(C(=O)CC1CC1c1cc(F)cc(F)c1)C2` (single isomer, unassigned) [Compound I-36], for which the concentration for a half-maximal effect (EC50) on rM4 receptors, at hM4 receptors and on human M4 receptor was under 0.1 µM in each case.
`Cc1cc(=O)n(C)c2c1CN(C(=O)CC1CC1c1ccc(C(F)(F)F)nc1)C2` (stereo not drawn) [Compound I-3]: the EC50 at rM4 receptors, on hM4 receptors and at human M4 receptor was 0.5 to 2 µM in each case.
Consider `Cc1cc(=O)n(C)c2c1CN(C(=O)CC1CC1)C2` [Compound I-10], for which the concentration for a half-maximal effect (EC50) is over 2 µM on rM4 receptors, 0.5 to 2 µM at hM4 receptors and 0.5 to 2 µM at human M4 receptor.
For `Cc1cc(=O)n(C)c2c1CN(C(=O)CC1CC1c1cccc(C3COC3)c1)C2` (stereo not drawn) [Compound I-12], the EC50 on rM4 receptors was 0.5 to 2 µM; on hM4 receptors, 0.1 to 0.5 µM; at human M4 receptor it was over 2 µM.
On the same counts, the results for `Cc1c2c(n(C)c(=O)c1C)CN(C(=O)CC1CC1c1cc(F)cc(F)c1)C2` (stereo not drawn) [Compound I-21] are 0.1 to 0.5 µM, under 0.1 µM and under 0.1 µM.
As to `Cc1c2c(n(C)c(=O)c1C)CN(C(=O)CC1CC1c1cccc(F)c1F)C2` (stereo not drawn) [Compound I-24], the half-maximal effective concentration (EC50) on rM4 receptors is 0.1 to 0.5 µM; at hM4 receptors, under 0.1 µM; on human M4 receptor, under 0.1 µM.
In the case of `COc1c2c(n(C)c(=O)c1C)CN(C(=O)CC1CC1c1ccc(C(F)(F)F)cc1)C2` (stereo not drawn) [Compound I-30], the EC50 was 0.5 to 2 µM on rM4 receptors, over 2 µM on hM4 receptors and over 2 µM on human M4 receptor.
As to `Cc1c2c(n(C)c(=O)c1Cl)CN(C(=O)CC1CC1c1cc(F)cc(F)c1)C2` (stereo not drawn) [Compound I-34], the EC50 at rM4 receptors, on hM4 receptors and on human M4 receptor was under 0.1 µM each time.
